{"source": "ChEMBL document CHEMBL1201862", "about": "“PubChem BioAssay data set” (2004)", "assay_in_all_cases": "DTP human tumour cell line panel, 48 h", "key": {"786-0": {"tested_on": "786-0"}, "A498": {"tested_on": "A498"}, "A549": {"tested_on": "A549"}, "ACHN": {"tested_on": "ACHN"}, "BT-549": {"tested_on": "BT-549"}, "CAKI-1": {"tested_on": "CAKI-1"}, "CCRF-CEM": {"tested_on": "CCRF-CEM"}, "COLO 205": {"tested_on": "COLO 205"}, "DU-145": {"tested_on": "DU-145"}, "EKVX": {"tested_on": "EKVX"}, "HCC 2998": {"tested_on": "HCC 2998"}, "HCT-116": {"tested_on": "HCT-116"}, "HCT-15": {"tested_on": "HCT-15"}, "HL-60": {"tested_on": "HL-60"}, "HOP-62": {"tested_on": "HOP-62"}, "HOP-92": {"tested_on": "HOP-92"}, "HT-29": {"tested_on": "HT-29"}, "Hs-578T": {"tested_on": "Hs-578T"}, "IGROV-1": {"tested_on": "IGROV-1"}, "K562": {"tested_on": "K562"}, "KM12": {"tested_on": "KM12"}, "LOX IMVI": {"tested_on": "LOX IMVI"}, "M14": {"tested_on": "M14"}, "MCF7": {"tested_on": "MCF7"}, "MDA-MB-231": {"tested_on": "MDA-MB-231"}, "MDA-MB-435": {"tested_on": "MDA-MB-435"}, "MDA-N": {"tested_on": "MDA-N"}, "MOLT-4": {"tested_on": "MOLT-4"}, "Malme-3M": {"tested_on": "Malme-3M"}, "NCI-H226": {"tested_on": "NCI-H226"}, "NCI-H23": {"tested_on": "NCI-H23"}, "NCI-H460": {"tested_on": "NCI-H460"}, "NCI-H522": {"tested_on": "NCI-H522"}, "NCI/ADR-RES": {"tested_on": "NCI/ADR-RES"}, "OVCAR-3": {"tested_on": "OVCAR-3"}, "OVCAR-4": {"tested_on": "OVCAR-4"}, "OVCAR-5": {"tested_on": "OVCAR-5"}, "OVCAR-8": {"tested_on": "OVCAR-8"}, "PC-3": {"tested_on": "PC-3"}, "RPMI-8226": {"tested_on": "RPMI-8226"}, "RXF 393": {"tested_on": "RXF 393"}, "SF-268": {"tested_on": "SF-268"}, "SF-295": {"tested_on": "SF-295"}, "SF-539": {"tested_on": "SF-539"}, "SK-MEL-28": {"tested_on": "SK-MEL-28"}, "SK-MEL-2": {"tested_on": "SK-MEL-2"}, "SK-MEL-5": {"tested_on": "SK-MEL-5"}, "SK-OV-3": {"tested_on": "SK-OV-3"}, "SN12C": {"tested_on": "SN12C"}, "SNB-19": {"tested_on": "SNB-19"}, "SNB-75": {"tested_on": "SNB-75"}, "SR": {"tested_on": "SR"}, "SW-620": {"tested_on": "SW-620"}, "T47D": {"tested_on": "T47D"}, "TK-10": {"tested_on": "TK-10"}, "U-251": {"tested_on": "U-251"}, "UACC-257": {"tested_on": "UACC-257"}, "UACC-62": {"tested_on": "UACC-62"}, "UO-31": {"tested_on": "UO-31"}}, "note": "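Values below derive from 48-hour exposures of cells grown in 96-well plates, with endpoints linearly interpolated between the two concentrations bracketing the appropriate inhibition level. GI50 marks 50% less growth.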 The source made the active and inactive calls. Rule as the data show it: active = GI50 up to about 1.1 µM and inactive = higher.", "data": [{"smiles": "O=C1C([P+](c2ccccc2)(c2ccccc2)c2ccccc2)=C([O-])C(=Cc2ccc(Cl)c(Cl)c2)C([O-])=C1[P+](c1ccccc1)(c1ccccc1)c1ccccc1", "values": [{"measurement": "GI50", "setting": "786-0", "result": "2140 nM (inactive)"}, {"measurement": "GI50", "setting": "A498", "result": "15100 nM (inactive)"}, {"measurement": "GI50", "setting": "A549", "result": "2620 nM (inactive)"}, {"measurement": "GI50", "setting": "ACHN", "result": "2800 nM (inactive)"}, {"measurement": "GI50", "setting": "BT-549", "result": "2270 nM (inactive)"}, {"measurement": "GI50", "setting": "CAKI-1", "result": "2180 nM (inactive)"}, {"measurement": "GI50", "setting": "CCRF-CEM", "result": "465 nM (active)"}, {"measurement": "GI50", "setting": "COLO 205", "result": "1730 nM (inactive)"}, {"measurement": "GI50", "setting": "DU-145", "result": "7670 nM (inactive)"}, {"measurement": "GI50", "setting": "EKVX", "result": "2470 nM (inactive)"}, {"measurement": "GI50", "setting": "HCC 2998", "result": "2930 nM (inactive)"}, {"measurement": "GI50", "setting": "HCT-116", "result": "1680 nM (inactive)"}, {"measurement": "GI50", "setting": "HCT-15", "result": 4790, "unit": "nM"}, {"measurement": "GI50", "setting": "HL-60", "result": "735 nM (active)"}, {"measurement": "GI50", "setting": "HOP-62", "result": "3540 nM (inactive)"}, {"measurement": "GI50", "setting": "HOP-92", "result": "2340 nM (inactive)"}, {"measurement": "GI50", "setting": "HT-29", "result": "1910 nM (inactive)"}, {"measurement": "GI50", "setting": "Hs-578T", "result": "4020 nM (inactive)"}, {"measurement": "GI50", "setting": "IGROV-1", "result": "2620 nM (inactive)"}, {"measurement": "GI50", "setting": "K562", "result": "1600 nM (inactive)"}, {"measurement": "GI50", "setting": "KM12", "result": "2010 nM (inactive)"}, {"measurement": "GI50", "setting": "LOX IMVI", "result": "1060 nM (active)"}, {"measurement": "GI50", "setting": "M14", "result": "2380 nM (inactive)"}, {"measurement": "GI50", "setting": "MCF7", "result": "1460 nM (inactive)"}, {"measurement": "GI50", "setting": "MDA-MB-231", "result": "2960 nM (inactive)"}, {"measurement": "GI50", "setting": "MDA-MB-435", "result": "2300 nM (inactive)"}, {"measurement": "GI50", "setting": "MDA-N", "result": "1900 nM (inactive)"}, {"measurement": "GI50", "setting": "MOLT-4", "result": "421 nM (active)"}, {"measurement": "GI50", "setting": "Malme-3M", "result": "2340 nM (inactive)"}, {"measurement": "GI50", "setting": "NCI-H226", "result": "3440 nM (inactive)"}, {"measurement": "GI50", "setting": "NCI-H23", "result": "3510 nM (inactive)"}, {"measurement": "GI50", "setting": "NCI-H460", "result": "2890 nM (inactive)"}, {"measurement": "GI50", "setting": "NCI-H522", "result": "1800 nM (inactive)"}, {"measurement": "GI50", "setting": "NCI/ADR-RES", "result": "8710 nM (inactive)"}, {"measurement": "GI50", "setting": "OVCAR-3", "result": "1990 nM (inactive)"}, {"measurement": "GI50", "setting": "OVCAR-4", "result": "2970 nM (inactive)"}, {"measurement": "GI50", "setting": "OVCAR-5", "result": "3560 nM (inactive)"}, {"measurement": "GI50", "setting": "OVCAR-8", "result": "2230 nM (inactive)"}, {"measurement": "GI50", "setting": "PC-3", "result": "1710 nM (inactive)"}, {"measurement": "GI50", "setting": "RPMI-8226", "result": "1220 nM (inactive)"}, {"measurement": "GI50", "setting": "RXF 393", "result": "1710 nM (inactive)"}, {"measurement": "GI50", "setting": "SF-268", "result": "1720 nM (inactive)"}, {"measurement": "GI50", "setting": "SF-295", "result": "2650 nM (inactive)"}, {"measurement": "GI50", "setting": "SF-539", "result": "2550 nM (inactive)"}, {"measurement": "GI50", "setting": "SK-MEL-28", "result": "2490 nM (inactive)"}, {"measurement": "GI50", "setting": "SK-MEL-2", "result": "2440 nM (inactive)"}, {"measurement": "GI50", "setting": "SK-MEL-5", "result": "2340 nM (inactive)"}, {"measurement": "GI50", "setting": "SK-OV-3", "result": "1930 nM (inactive)"}, {"measurement": "GI50", "setting": "SN12C", "result": "2430 nM (inactive)"}, {"measurement": "GI50", "setting": "SNB-19", "result": "3160 nM (inactive)"}, {"measurement": "GI50", "setting": "SNB-75", "result": "4020 nM (inactive)"}, {"measurement": "GI50", "setting": "SR", "result": "925 nM (active)"}, {"measurement": "GI50", "setting": "SW-620", "result": "2170 nM (inactive)"}, {"measurement": "GI50", "setting": "T47D", "result": "3370 nM (inactive)"}, {"measurement": "GI50", "setting": "TK-10", "result": "2710 nM (inactive)"}, {"measurement": "GI50", "setting": "U-251", "result": "2470 nM (inactive)"}, {"measurement": "GI50", "setting": "UACC-257", "result": "2430 nM (inactive)"}, {"measurement": "GI50", "setting": "UACC-62", "result": "2230 nM (inactive)"}, {"measurement": "GI50", "setting": "UO-31", "result": "3750 nM (inactive)"}]}]}
